Test results reported in patent US20090270373A1, “TREATMENT OF DOWN SYNDROM WITH BENZODIAZEPINE RECEPTOR ANTAGONISTS” (Cypress Biosciences, Inc., priority 2008, published 2009).

What was measured:
benzodiazepine receptors = settings: cited from earlier work
WT mice = experiment: Novel object recognition assay (Discrimination Index) in WT mice; assay type: in vivo, mouse
Description: Following baseline determinations and group assignments, WT and Ts65Dn mice received intraperitoneal (i.p.) injections once/day (08:00) for the two-week duration of the drug treatment regimen (FIG. 1). Drugs were dissolved in physiological saline. Two drops of Tween 80 were used to facilitate solution formation for flumazenil. Picrotoxin was initially made up at 50× concentration in 20% ethanol and then diluted down to a […] solution with 0.4% ETOH in saline. Doses of drugs were based on previous behavioral research in mice (1 mg/kg for PTX and 10 mg/kg for flumazenil). Injections were given in a volume of 10 ml/kg. A vehicle control was run along side the treatment groups (0.4% ETOH in saline).
FIG. 1 graphically depicts the protocol. After habituation to the animal facility, mice were tested for baseline behaviors in the open-field locomotor assay (LMA)(30 min session) and the novel object recognition assay. Primary experimental groups were divided by genotype (Ts65Dn mice and wild-type control littermates). These two groups were further divided into drug treatments (vehicle, PTX and flumazenil) with a targeted n-size of 8 mice/group (24 WT and 24 Ts65Dn mice total). The group assignments were made in a semi-random process due to constraints in animal availability (staggered shipping) and choice of initial treatment groups (e-mail documentation between Bilsky laboratory and Cypress Bioscience on file). Daily morning injections began on Day 1 and went through the morning of Day 14. On Days 7/8 and 14/15 (13:00) mice were tested in the behavioral assay. Mice were kept for an additional two weeks and re-tested on Days 21/22 and 28/29 to assess the duration of the drug treatment effect.
The novel object recognition task is based on the innate tendency of rodents to differentially explore novel objects over familiar ones. The task is well validated for evaluating rodent memory and the effects of drug treatments on learning/memory performance.
Mice were trained and tested once per week, each experimental session separated by a one-week interval. Mice were submitted to daily handling sessions, and given an opportunity to habituate to an open field arena (48 cm×48 cm wide×25 cm), where they were exposed to two different objects (complex protocol), during a 5-minute training session. Objects were made from various non-porous materials that differ in shape and color. Mice were unable to climb onto the objects and the objects were generally consistent in height and volume, and were roughly symmetrical on a horizontal plane. Objects were positioned in two corners of the apparatus. To control for odor cues, the open field arena and the objects are thoroughly cleaned with 90% ethanol, dried, and ventilated for a few minutes between mice.
A 5-minute testing session was conducted 24 h after training. Here, the mice were presented with the object they had explored the previous day, and a new item (the objects being alternatively positioned in one corner or another in a balanced fashion within a given week, and from one week to another). […]

Down Syndrome patients = experiment: Cognition in Down Syndrome patients, double-blind cross-over (Example 3); assay type: in vivo, human; settings: 5 and 20 mg
Description: Fifteen adult or adolescent Down Syndrome patients experiencing at least some level of cognitive impairment participate in a double-blind, cross-over comparison of […]. The drugs administered are flumazenil (5 and 20 mg), bretazenil (5 and 20 mg) or placebo. Subjects are randomly assigned to treatments according to a Williams Square design (Higgitt, supra (citing Williams, “Experimental designs balanced for the estimation of residual effects of treatments, Aust. J. Sci. Res. 2:149-168 (1949))). Each subject receives a different sequence of four treatments balanced for carry-over effects and separated by at least 1 week of wash-out period. […]
Psychophysiological indices to be measured include: EEG, skin conductance, finger tremor, critical flicker fusion threshold, blood pressure and pulse rate, key tapping rate, and reaction time. […]
EEG and evoked responses: These are recorded during the same EEG recording procedure. […] In addition, the four values are summed and each is expressed as a percentage of the total.
The averaged evoked responses are obtained from the 500 ms epoch of the EEG following each of the 32 click stimuli. […] The latency at each peak and peak-to-peak amplitudes are computed and recorded automatically. […]
Skin conductance, blood pressure and pulse rate can be measured by the method of Higgitt et al., supra. […]

SMILES: CCOC(=O)c1ncn2c1CN(C)C(=O)c1cc(F)ccc1-2 [flumazenil, 8-fluoro-5,6-dihydro-5-methyl-6-oxo-4H-imidazo[1,5-a]benzodiazepine-3-carboxylic acid ethyl ester]
- antagonism of the effects of diazepam (benzodiazepine receptors; given orally or intravenously): effectively antagonizes
- activity at oral dosing (benzodiazepine receptors; oral 30 to 100 mg, normal adult human subjects): partial benzodiazepine agonist
- Discrimination Index (DI) (WT mice; Week 2 of drug therapy, versus vehicle): no differences
- Discrimination Index (DI) (WT mice; Week 4 (2 weeks post dosing)): slight negative DI
- indicators of cognition as compared to placebo (Down Syndrome patients): improvement in one or more indicators of cognition
